US4440784A, “Anti-inflammatory, analgesic, and antipyretic pharmaceutical composition” (Kanegafuchi Chemical Industry Company, Ltd., priority 1981, dated 1984)
Where two headings read alike, the source gives them in different places.

What was measured:
[1] = system: acetic acid-induced writhing in mice; test: acetic acid-induced writhing in mice (analgesic activity); type: in vivo, male ddY strain mice; conditions: po
Experimental: An analgesic activity was evaluated by the method of acetic acid-induced writhing in mice [R. Koster et al., Federation Proc., 18, 412 (1959)]. Ten male ddY strain mice weighing 20~25 g were used in each group. Test compounds suspended in 2.5% acacia were administered p.o. to the mice. One hour later, the mice were injected i.p. with 0.6% acetic acid in a volume of 0.1 ml/10 g body weight. The number of writhes in each of mice was counted for 20 minutes after the injection of the acetic acid. Percent inhibition was calculated by the following equation. [formula]

[2] = system: carrageenan-induced paw edema in rats; test: carrageenan-induced paw edema in rats (acute anti-inflammatory activity); type: in vivo, male Wistar strain rats; conditions: po; for inhibition in vivo at 50 mg/kg / inhibition in vivo at 100 mg/kg: rat, p.o.; for inhibition in vivo at 5 mg/kg: Rattus norvegicus
Experimental: (1) An acute anti-inflammatory activity was evaluated by the method of carrageenan-induced paw edema in rats [C. A. Winter et al., Proc. Soc. […] Six male Wistar strain rats weighing 150~180 g were used in each group. […] The volume of each paw edema was measured 3 and 5 hours after the injection of carrageenan. Percent edema inhibition was calculated by the following equation. [formula]

[3] = system: yeast-induced fever in rats; test: yeast-induced fever in rats (antipyretic activity); type: in vivo, male Wistar strain rats; conditions: po; for inhibition in vivo at 100 mg/kg / inhibition in vivo at 50 mg/kg: rat, p.o.; for inhibition in vivo at 5 mg/kg: Rattus norvegicus
Experimental: Five male Wistar strain rats weighing 150~180 g were used in each group. A 20% Baker's yeast suspension in 0.9% NaCl was injected s.c. into the dorsal region of rats in a volume of 1 ml/100 g body weight. […] The rectal temperature was determined with a thermometer, 1, 3 and 5 hours after the administration of test compounds. Percent inhibition was calculated by the following equation. [formula]

[4] = toxicity test in mice (LD50); conditions: in vivo, po; mouse, 14 days observation
Experimental: Female ICR strain mice weighing 20~25 g in groups of six each were used for toxicity tests. Test compounds suspended in 2.5% acacia were administered p.o. to the mice. The animals were observed daily for 14 days after the administration. The LD50 values were estimated from mortality (No. of dead mice/No. of mice used).

[5] = system: adjuvant-induced arthritis in rats; test: adjuvant-induced arthritis in rats (chronic anti-inflammatory activity); type: in vivo, male Sprague-Dawley strain rats; conditions: rat, p.o. once daily
Experimental: (3) A chronic anti-inflammatory activity was evaluated by the method of adjuvant-induced arthritis in rats [D. T. Walz et al., J. Pharmacol. and Exp. Ther., 178, 223 (1971)]. Eight male Sprague-Dawley strain rats weighing 190~230 g were used in each group. Into the left hind paw of rats was injected i.d. 0.5 mg of Mycobacterium butyricum suspended in 0.05 ml of paraffin oil. Test compounds suspended in 2.5% acacia were administered p.o. once daily for 21 days, starting on the day of the injection of an adjuvant (day 0). Paw volumes of adjuvant-injected and uninjected feet were measured on day 14 and on day 21. Percent inhibition was calculated by the following equation. [formula]

[6] = system: paper disk-induced granuloma in rats; test: paper disk-induced granuloma in rats (sub-chronic anti-inflammatory activity); type: in vivo, male Wistar strain rats; conditions: rat, p.o. once daily for 7 days
Experimental: Six male Wistar strain rats weighing 150~180 g were used in each group. Each paper disk (29±1 mg) was implanted s.c. into the bilateral area of the scapula of rats under anesthesia with amobarbital sodium. […] The rats were killed on day 7, at which time the paper disks with surrounding granulomatous tissues were removed and dried to constant weight overnight, and weighed. Percent inhibition was calculated by the following equation. [formula]

[7] = Mus musculus, read-out: Inhibition (writhing)
[8] = mouse, p.o., 100 mg/kg, 1 hour before acetic acid i.p., read-out: Inhibition (writhing)
[9] = 3 hours after carrageenan, read-out: Percent edema inhibition, 3 hours
[10] = 5 hours after carrageenan, read-out: Percent edema inhibition, 5 hours
[11] = 1 hour after administration, read-out: Inhibition (fever), 1 hour
[12] = 3 hours after administration, read-out: Inhibition (fever), 3 hours
[13] = 5 hours after administration, read-out: Inhibition (fever), 5 hours

| Structure (SMILES) | inhibition in vivo at 100 mg/kg [1, 8] [%] | inhibition in vivo at 50 mg/kg [2, 9] [%] | inhibition in vivo at 50 mg/kg [2, 10] [%] | inhibition in vivo at 100 mg/kg [3, 11] [%] | inhibition in vivo at 100 mg/kg [3, 12] [%] | inhibition in vivo at 100 mg/kg [3, 13] [%] | LD50 at 336 h [4] [mg/kg] | further results |
| --- | --- | --- | --- | --- | --- | --- | --- | --- |
| CC(=O)Oc1ccccc1C(=O)O [Aspirin, reference compound] | – | – | – | – | – | – | – | inhibition in vivo at 100 mg/kg [1, 7]: 38% |
| CC(C)(C)c1cc(C=C(CCO)C(=O)O)cc(C(C)(C)C)c1O [Compound I, β-Carboxy-β-(2-hydroxyethyl)-3,5-di-tert-butyl-4-hydroxystyrene] | 74.5 | 44.6 | 41.6 | 53.1 | 98.9 | 70.3 | > 1000 | – |
| COC(=O)C(=Cc1cc(C(C)(C)C)c(O)c(C(C)(C)C)c1)CCO [Compound II, β-Methoxycarbonyl-β-(2-hydroxyethyl)-3,5-di-tert-butyl-4-hydroxystyrene] | 79.8 | 52.1 | 41.7 | 42.5 | 64.5 | 59.7 | > 1000 | – |
| CCC(=Cc1cc(C(C)(C)C)c(O)c(C(C)(C)C)c1)C(=O)O [Compound III, β-Carboxy-β-ethyl-3,5-di-tert-butyl-4-hydroxystyrene] | 28.2 | 12.1 | 18.3 | 14.6 | 31.8 | 19.5 | > 1000 | – |
| CCOC(=O)C(=Cc1cc(C(C)(C)C)c(O)c(C(C)(C)C)c1)C(C)=O [Compound IV, β-Ethoxycarbonyl-β-acetyl-3,5-di-tert-butyl-4-hydroxystyrene] | 56.9 | 30.3 | 28.4 | 23 | 40.9 | 41.6 | > 1000 | – |
| CC(C)(C)c1cc(C=C(C#N)C(N)=O)cc(C(C)(C)C)c1O [Compound IX, β-Carbamoyl-β-cyano-3,5-di-tert-butyl-4-hydroxystyrene] | 50.7 | 40.8 | 34.2 | 35.4 | 77.3 | 87 | > 1000 | Inhibition, injected foot, Day 14 ([5]; 12.5 mg/kg/day): 33.3%; Inhibition, injected foot, Day 21 ([5]; 12.5 mg/kg/day): 46.1%; Inhibition, uninjected foot, Day 14 ([5]; 12.5 mg/kg/day): 70.3%; Inhibition, uninjected foot, Day 21 ([5]; 12.5 mg/kg/day): 42.6%; Inhibition, injected foot, Day 14 ([5]; 50 mg/kg/day): 31.6%; Inhibition, injected foot, Day 21 ([5]; 50 mg/kg/day): 29.6%; Inhibition, uninjected foot, Day 14 ([5]; 50 mg/kg/day): 40.5%; Inhibition, uninjected foot, Day 21 ([5]; 50 mg/kg/day): 42.6%; Inhibition (granuloma) ([6]; 25 mg/kg/day): 27.0%; Inhibition (granuloma) ([6]; 100 mg/kg/day): 25.0% |
| CC(=O)C(C)=Cc1cc(C(C)(C)C)c(O)c(C(C)(C)C)c1 [Compound VI, β-Acetyl-β-methyl-3,5-di-tert-butyl-4-hydroxystyrene] | 47.8 | 32.5 | 20.7 | 38.1 | 45.5 | 41.6 | > 1000 | – |
| CC(C)(C)c1cc(C=CC(=O)c2ccccc2)cc(C(C)(C)C)c1O [Compound VII, β-Benzoyl-3,5-di-tert-butyl-4-hydroxystyrene] | 33 | 16.9 | 19.7 | 15.9 | 27.7 | 21.4 | > 1000 | – |
| CC(C)(C)c1cc(C=CC(N)=O)cc(C(C)(C)C)c1O [Compound VIII, β-Carbamoyl-3,5-di-tert-butyl-4-hydroxystyrene] | 25.8 | 17.6 | 14.6 | 19.9 | 25.9 | 16.9 | > 1000 | – |
| CC(C)(C)c1cc(C=C[N+](=O)[O-])cc(C(C)(C)C)c1O [Compound X, β-Nitro-3,5-di-tert-butyl-4-hydroxystyrene] | – | 11 | 17.3 | 18.6 | 30.5 | 23.4 | > 1000 | inhibition in vivo at 100 mg/kg [1, 7]: 24.4% |
| CC(C)(C)c1cc(C=C(C#N)S(C)(=O)=O)cc(C(C)(C)C)c1O [Compound XI, β-Methylsulfonyl-β-cyano-3,5-di-tert-butyl-4-hydroxystyrene] | – | 35.1 | 18.3 | – | – | – | 250 to 500 | inhibition in vivo at 50 mg/kg ([1]; mouse, p.o., 50 mg/kg, 1 hour before acetic acid i.p.): 31.6%; inhibition in vivo at 50 mg/kg [3, 11]: 23.2%; inhibition in vivo at 50 mg/kg [3, 12]: 31.2%; inhibition in vivo at 50 mg/kg [3, 13]: 19.9% |
| CC(C)Cc1ccc(C(C)C(=O)O)cc1 (centres unmarked) [Ibuprofen, reference compound] | – | – | – | – | – | – | – | Inhibition, injected foot, Day 14 ([5]; 12.5 mg/kg/day): -2.6%; Inhibition, injected foot, Day 21 ([5]; 12.5 mg/kg/day): -17.4%; Inhibition, uninjected foot, Day 14 ([5]; 12.5 mg/kg/day): 13.5%; Inhibition, uninjected foot, Day 21 ([5]; 12.5 mg/kg/day): -7.4%; Inhibition, injected foot, Day 14 ([5]; 50 mg/kg/day): -1.7%; Inhibition, injected foot, Day 21 ([5]; 50 mg/kg/day): 28.7%; Inhibition, uninjected foot, Day 14 ([5]; 50 mg/kg/day): 32.4%; Inhibition, uninjected foot, Day 21 ([5]; 50 mg/kg/day): 44.4% |
| COc1ccc2c(c1)c(CC(=O)O)c(C)n2C(=O)c1ccc(Cl)cc1 [Indomethacin, reference compound] | – | – | – | – | – | – | – | inhibition in vivo at 5 mg/kg [1, 7]: 62.7%; inhibition in vivo at 5 mg/kg ([2]; 3 h, read-out: Percent edema inhibition, 3 hours): 32.8%; inhibition in vivo at 5 mg/kg ([2]; 5 h, read-out: Percent edema inhibition, 5 hours): 39.2%; inhibition in vivo at 5 mg/kg ([3]; 1 h, read-out: Inhibition (fever), 1 hour): 35.4%; inhibition in vivo at 5 mg/kg ([3]; 3 h, read-out: Inhibition (fever), 3 hours): 56.4%; inhibition in vivo at 5 mg/kg ([3]; 5 h, read-out: Inhibition (fever), 5 hours): 66.2%; Inhibition (granuloma) ([6]; 1.25 mg/kg/day): 14.0%; Inhibition (granuloma) ([6]; 5 mg/kg/day): 25.5% |
| CCCCC1C(=O)N(c2ccccc2)N(c2ccccc2)C1=O [Phenylbutazone, reference compound] | – | – | – | – | – | – | – | inhibition in vivo at 100 mg/kg [2, 9]: 23.6%; inhibition in vivo at 100 mg/kg [2, 10]: 28.9%; Inhibition (granuloma) ([6]; 25 mg/kg/day): 5.6%; Inhibition (granuloma) ([6]; 100 mg/kg/day): 24.2% |
